Columns and labels:
Assay in all cases: relative viability (nuclei count vs DMSO), 5 days (fraction); higher = more cells survive
[1] = compound: C1=CC2=C(C=C(C(=C2N=C1)O)N=NC3=CC4=C(C=C3)C=C(C=C4)S(=O)(=O)O)S(=O)(=O)O + Cc1nc(Nc2ncc(C(=O)Nc3c(C)cccc3Cl)s2)cc(N2CCN(CCO)CC2)n1 [Dasatinib] (partner 0.075 µM)
In short: (§1)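 One day after seeding in 1536-well plates, lung cancer cell lines were dosed by pin tool. Dosing was either single-drug or a fixed anchor-drug dose plus five library-drug doses (not always all listed) in √10 steps. After 5 days, nuclei were stained in one fix-and-stain step and counted on 4× images, and relative viability is the nuclei count of treated wells over that of vehicle wells, given as the median of duplicate plates.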

AT-7519 + Trametinib = compound: O=C(NC1CCNCC1)c1n[nH]cc1NC(=O)c1c(Cl)cccc1Cl [AT-7519] + CC(=O)Nc1cccc(-n2c(=O)n(C3CC3)c(=O)c3c(Nc4ccc(I)cc4F)n(C)c(=O)c(C)c32)c1 [Trametinib] (partner 0.02 µM)
In short: as §1

AT-7519 + Foretinib = compound: O=C(NC1CCNCC1)c1n[nH]cc1NC(=O)c1c(Cl)cccc1Cl [AT-7519] + COc1cc2c(Oc3ccc(NC(=O)C4(C(=O)Nc5ccc(F)cc5)CC4)cc3F)ccnc2cc1OCCCN1CCOCC1 [Foretinib] (partner 0.25 µM)
In short: as §1

AT-7519 + Pictilisib = compound: O=C(NC1CCNCC1)c1n[nH]cc1NC(=O)c1c(Cl)cccc1Cl [AT-7519] + CS(=O)(=O)N1CCN(Cc2cc3nc(-c4cccc5[nH]ncc45)nc(N4CCOCC4)c3s2)CC1 [Pictilisib] (partner 1 µM)
In short: as §1

Cell Line | relative viability ([1]; first compound 0.08 µM) | relative viability ([1]; first compound 0.253 µM) | relative viability ([1]; first compound 0.8 µM) | relative viability ([1]; first compound 2.53 µM) | relative viability ([1]; first compound 8 µM) | relative viability (AT-7519 + Trametinib; first compound 0.01 µM) | relative viability (AT-7519 + Trametinib; first compound 0.03162 µM) | relative viability (AT-7519 + Trametinib; first compound 0.3162 µM) | relative viability (AT-7519 + Trametinib; first compound 1 µM) | relative viability (AT-7519 + Foretinib; first compound 0.01 µM) | relative viability (AT-7519 + Foretinib; first compound 0.03162 µM) | relative viability (AT-7519 + Foretinib; first compound 0.3162 µM) | relative viability (AT-7519 + Foretinib; first compound 1 µM) | relative viability (AT-7519 + Pictilisib; first compound 0.01 µM) | relative viability (AT-7519 + Pictilisib; first compound 0.03162 µM) | relative viability (AT-7519 + Pictilisib; first compound 0.3162 µM) | relative viability (AT-7519 + Pictilisib; first compound 1 µM)
NCI-H1355 | 0.764 | 0.754 | 0.708 | 0.77 | 0.665 | 0.482 | 0.416 | 0.48 | 0.298 | 0.906 | 0.989 | 1.02 | 0.854 | 0.462 | 0.388 | 0.475 | 0.35
HCC-78 | 0.404 | 0.337 | 0.426 | 0.352 | 0.394 | 0.688 | 0.712 | 0.963 | 0.46 | 0.564 | 0.563 | 0.597 | 0.575 | 0.208 | 0.214 | 0.146 | 0.209
NCI-H1563 | 0.455 | 0.478 | 0.492 | 0.397 | 0.418 | – | – | – | – | 0.846 | 0.867 | 0.948 | 0.957 | 0.591 | 0.612 | 0.764 | 0.511
HCC-15 | 0.684 | 0.551 | 0.609 | 0.584 | 0.624 | 0.404 | 0.371 | 0.374 | 0.24 | 1.11 | 0.941 | 0.914 | 0.403 | 0.766 | 0.764 | 0.59 | 0.323
EKVX | 0.314 | 0.648 | 0.556 | 0.743 | 0.633 | 0.326 | 0.312 | 0.525 | 0.3 | 0.75 | 0.902 | 0.996 | 0.773 | 0.449 | 0.385 | 0.393 | 0.346
NCI-H2087 | 0.962 | 0.872 | 0.715 | 0.847 | 0.884 | 0.241 | 0.187 | 0.135 | 0.119 | 1.14 | 1.09 | 1.07 | 0.295 | 1.02 | 0.882 | 0.593 | 0.173
LK-2 | 0.357 | 0.33 | 0.204 | 0.33 | 0.239 | 0.643 | 0.67 | 0.716 | 0.271 | 1.04 | 1.16 | – | 0.95 | 0.785 | 0.503 | 0.497 | 0.265
NCI-H1437 | 0.351 | 0.402 | 0.43 | 0.383 | 0.301 | 0.532 | 0.503 | 0.507 | 0.214 | 1.3 | 1.32 | 1.24 | 1.01 | 0.471 | 0.392 | 0.29 | 0.133
COR-L23 | 0.523 | 0.477 | 0.442 | 0.582 | 0.576 | 0.83 | 0.643 | 0.469 | 0.103 | 1.19 | 0.799 | 0.992 | 0.507 | 0.728 | 0.598 | 0.291 | 0.0899
ABC-1 | 0.568 | – | – | 0.713 | 0.421 | – | – | – | – | 0.937 | 1.09 | 0.962 | 0.541 | 0.837 | 0.688 | 0.527 | 0.202
